US10087185B2 (Janssen Pharmaceutica NV, priority 2016, dated 2018)

Target: TARP γ8 dependent AMPA receptor (GRIA1o-CACNG8 fusion construct) (Homo sapiens (Human), UniProt P42261+Q8WXS5)
Experiment: Calcium flux assay (FLIPR), inhibition of glutamate response of GluA1o-γ8 channel
Assay type: cell-based
Conditions: HEK293 cells stably expressing GRIA1o-CACNG8 fusion; calcium flux after 15 μM glutamate; negative log of the IC50 in molar
Summary of the method: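 HEK293 clonal line stably expressing a GRIA1o-CACNG8 fusion (1:1 GluA1o:γ8), loaded with Calcium-5/6 dye plus compound in HEPES buffer pH 7.4. FLIPR calcium flux read after 15 μM glutamate; normalized to no-compound and 10 μM CP465022 controls. Four-parameter logistic fit gives IC50, reported as pIC50.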

Chain of TARP γ8 dependent AMPA receptor (GRIA1o-CACNG8 fusion construct) (P42261 other isoform, or with tags, fused parts or gaps): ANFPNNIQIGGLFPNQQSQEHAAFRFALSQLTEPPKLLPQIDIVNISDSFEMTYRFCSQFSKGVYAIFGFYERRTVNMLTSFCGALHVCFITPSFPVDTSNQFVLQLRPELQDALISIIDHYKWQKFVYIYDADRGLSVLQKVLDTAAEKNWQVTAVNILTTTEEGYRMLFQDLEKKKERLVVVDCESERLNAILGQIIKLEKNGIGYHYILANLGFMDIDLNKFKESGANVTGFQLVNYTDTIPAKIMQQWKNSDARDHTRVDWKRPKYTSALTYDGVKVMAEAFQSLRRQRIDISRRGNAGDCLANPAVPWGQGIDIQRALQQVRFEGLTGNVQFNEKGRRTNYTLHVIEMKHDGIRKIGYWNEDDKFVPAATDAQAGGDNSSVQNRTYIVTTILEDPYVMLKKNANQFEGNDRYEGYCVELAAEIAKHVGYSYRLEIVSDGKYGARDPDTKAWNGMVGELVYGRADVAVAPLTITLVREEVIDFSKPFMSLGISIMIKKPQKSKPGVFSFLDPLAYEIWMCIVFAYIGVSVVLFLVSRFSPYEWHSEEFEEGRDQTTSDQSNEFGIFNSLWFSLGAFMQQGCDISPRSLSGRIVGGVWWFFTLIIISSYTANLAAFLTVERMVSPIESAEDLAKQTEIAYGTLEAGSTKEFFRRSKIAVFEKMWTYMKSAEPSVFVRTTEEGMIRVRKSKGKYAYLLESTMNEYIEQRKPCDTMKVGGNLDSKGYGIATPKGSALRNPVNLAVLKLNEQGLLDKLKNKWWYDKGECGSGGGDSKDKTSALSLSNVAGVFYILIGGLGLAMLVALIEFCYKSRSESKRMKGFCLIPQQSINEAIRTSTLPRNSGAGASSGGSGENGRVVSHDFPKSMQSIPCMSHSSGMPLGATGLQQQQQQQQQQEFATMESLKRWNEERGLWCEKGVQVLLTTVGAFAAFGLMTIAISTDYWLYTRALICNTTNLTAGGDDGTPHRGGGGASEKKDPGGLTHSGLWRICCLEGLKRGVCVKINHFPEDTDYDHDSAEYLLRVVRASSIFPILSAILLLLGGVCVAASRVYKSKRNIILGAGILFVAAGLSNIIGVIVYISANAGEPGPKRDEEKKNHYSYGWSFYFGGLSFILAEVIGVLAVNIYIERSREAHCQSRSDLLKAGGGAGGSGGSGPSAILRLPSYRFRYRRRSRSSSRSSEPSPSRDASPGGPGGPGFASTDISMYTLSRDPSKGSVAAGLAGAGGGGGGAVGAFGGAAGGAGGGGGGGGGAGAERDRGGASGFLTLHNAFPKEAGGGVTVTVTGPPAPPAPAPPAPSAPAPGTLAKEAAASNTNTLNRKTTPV

Question: `CCOc1nc2c(C)cc(C(F)(F)F)c(-c3cc(Cl)c4[nH]ncc4c3)n2n1` [Example 117, 5-(7-Chloro-1H-indazol-5-yl)-2-ethoxy-8-methyl-6-(trifluoromethyl)-[1,2,4]triazolo[1,5-a]pyridine] was tested. Which IC50 did it give?
Answer: 2510 pM

Question: Which pIC50 does the source give for `FC(F)(F)c1ccc2cc(C3CC3)nn2c1-c1cc(Cl)c2[nH]ncc2c1` [Example 118, 7-Chloro-5-(2-cyclopropyl-6-(trifluoromethyl)pyrazolo[1,5-a]pyridin-7-yl)-1H-indazole] here?
Answer: 10.2

Question: For `Cc1cc(-c2c(C(F)F)ccc3cc(C(F)(F)F)nn23)cc2c1NC(=O)C2` [Example 119, 5-[6-(Difluoromethyl)-2-(trifluoromethyl)pyrazolo[1,5-a]pyridin-7-yl]-7-methyl-indolin-2-one], which IC50 is on record?
Answer: 50.1 pM

Question: How did the IC50 turn out when `FC(F)c1ccc2cc(C(F)(F)F)nn2c1-c1cc(Cl)c2[nH]ncc2c1` [Example 120, 7-(7-Chloro-1H-indazol-5-yl)-6-(difluoromethyl)-2-(trifluoromethyl)pyrazolo[1,5-a]pyridine] was run?
Answer: 15.8 pM

Question: `Cc1cc(-c2c(C(F)F)ccc3cc(C(F)(F)F)nn23)cc2cn[nH]c12` [Example 121, 6-(Difluoromethyl)-7-(7-methyl-1H-indazol-5-yl)-2-(trifluoromethyl)pyrazolo[1,5-a]pyridine] was tested. Which IC50 did it give?
Answer: 25.1 pM

Question: Which IC50 does the source give for `Cc1cc(-c2c(C(F)F)cc(C)c3cc(C(F)(F)F)nn23)cc2c1NC(=O)C2` [Example 122, 5-[6-(Difluoromethyl)-4-methyl-2-(trifluoromethyl)pyrazolo[1,5-a]pyridin-7-yl]-7-methyl-indolin-2-one] here?
Answer: 50.1 pM

Question: For `Cc1cc(-c2c(C(F)F)cc(C)c3cc(C(F)(F)F)nn23)cc2cn[nH]c12` [Example 123, 6-(Difluoromethyl)-4-methyl-7-(7-methyl-1H-indazol-5-yl)-2-(trifluoromethyl)pyrazolo[1,5-a]pyridine], which IC50 is on record?
Answer: 126 pM

Question: For `Cc1cc(C(F)F)c(-c2cc(Cl)c3c(c2)CC(=O)N3)n2nc(C(F)(F)F)cc12` [Example 124, 7-Chloro-5-[6-(difluoromethyl)-4-methyl-2-(trifluoromethyl)pyrazolo[1,5-a]pyridin-7-yl]indolin-2-one], which IC50 is on record?
Answer: 251 pM

Question: Which IC50 does the source give for `Cc1cc(C(F)F)c(-c2cc(Cl)c3[nH]ncc3c2)n2nc(C(F)(F)F)cc12` [Example 125, 7-(7-Chloro-1H-indazol-5-yl)-6-(difluoromethyl)-4-methyl-2-(trifluoromethyl)pyrazolo[1,5-a]pyridine] here?
Answer: 100 pM
